Patent US20250235543A1, “MODIFIED PROTEINS AND PROTEIN DEGRADERS” (Cullgen (Shanghai), Inc., priority 2021, published 2025)
Like-named read-outs stand apart in the source and are kept apart here.

Legend:
[1] = system: cyclin D1; assay: Cyclin D1 percentage degradation in Calu-1 cells (immunoblotting); assay type: cell-based; conditions: 16 hours
Procedure, shortened: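 Cyclin D1 degradation was assessed by western blot. Clarified lysates, obtained by RIPA lysis with inhibitors and centrifugation at 13,000 rpm, were normalized by BCA protein assay and separated by SDS-PAGE. Bands were detected with Western ECL Substrate on a Bio-Rad ChemiDoc MP Imaging system and quantified in Image Lab software to derive percentage degradation.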

[2] = biological target: T1, CDK4 (Homo sapiens, UniProt P11802); assay: CDK4 percentage degradation in Calu-1 cells (immunoblotting); assay type: cell-based; conditions: for inhibition at 0.2 µM: read-out: CDK4 Degradation (200 nM); for inhibition at 10 µM: read-out: CDK4 Degradation (10 μM)
T1 construct: endogenous in cells; host or cells: Calu-1
Procedure, shortened: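 CDK4 degradation was measured by immunoblotting. Cells were washed in cold PBS and lysed in RIPA buffer with inhibitors for 30 min at 4° C., then spun at 13,000 rpm to clear. After BCA protein determination, lysates were heated at 99° C. for 5 min in Laemmli buffer, resolved on SDS-PAGE, imaged on a ChemiDoc MP with ECL substrate, and band intensities quantified.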

T1 sequence (P11802 2-303 limits assumed): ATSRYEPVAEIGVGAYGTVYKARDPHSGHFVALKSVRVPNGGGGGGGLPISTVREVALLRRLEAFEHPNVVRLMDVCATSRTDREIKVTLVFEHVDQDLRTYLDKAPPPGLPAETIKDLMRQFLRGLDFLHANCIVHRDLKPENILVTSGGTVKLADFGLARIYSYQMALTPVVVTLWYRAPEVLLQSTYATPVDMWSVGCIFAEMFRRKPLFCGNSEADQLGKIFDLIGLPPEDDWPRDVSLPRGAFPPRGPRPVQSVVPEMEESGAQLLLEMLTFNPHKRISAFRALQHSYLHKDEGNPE
T1 sequence (P24385 whole entry partner): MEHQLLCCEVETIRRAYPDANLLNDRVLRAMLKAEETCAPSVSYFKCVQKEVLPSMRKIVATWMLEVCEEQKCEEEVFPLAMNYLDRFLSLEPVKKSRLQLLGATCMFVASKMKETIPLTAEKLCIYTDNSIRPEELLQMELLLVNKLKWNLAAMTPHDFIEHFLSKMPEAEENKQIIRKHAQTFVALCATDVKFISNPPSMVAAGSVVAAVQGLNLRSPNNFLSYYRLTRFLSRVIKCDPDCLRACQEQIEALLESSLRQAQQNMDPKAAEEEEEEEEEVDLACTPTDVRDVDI
T1 sequence (Q16531 2-1140 limits assumed, further chain): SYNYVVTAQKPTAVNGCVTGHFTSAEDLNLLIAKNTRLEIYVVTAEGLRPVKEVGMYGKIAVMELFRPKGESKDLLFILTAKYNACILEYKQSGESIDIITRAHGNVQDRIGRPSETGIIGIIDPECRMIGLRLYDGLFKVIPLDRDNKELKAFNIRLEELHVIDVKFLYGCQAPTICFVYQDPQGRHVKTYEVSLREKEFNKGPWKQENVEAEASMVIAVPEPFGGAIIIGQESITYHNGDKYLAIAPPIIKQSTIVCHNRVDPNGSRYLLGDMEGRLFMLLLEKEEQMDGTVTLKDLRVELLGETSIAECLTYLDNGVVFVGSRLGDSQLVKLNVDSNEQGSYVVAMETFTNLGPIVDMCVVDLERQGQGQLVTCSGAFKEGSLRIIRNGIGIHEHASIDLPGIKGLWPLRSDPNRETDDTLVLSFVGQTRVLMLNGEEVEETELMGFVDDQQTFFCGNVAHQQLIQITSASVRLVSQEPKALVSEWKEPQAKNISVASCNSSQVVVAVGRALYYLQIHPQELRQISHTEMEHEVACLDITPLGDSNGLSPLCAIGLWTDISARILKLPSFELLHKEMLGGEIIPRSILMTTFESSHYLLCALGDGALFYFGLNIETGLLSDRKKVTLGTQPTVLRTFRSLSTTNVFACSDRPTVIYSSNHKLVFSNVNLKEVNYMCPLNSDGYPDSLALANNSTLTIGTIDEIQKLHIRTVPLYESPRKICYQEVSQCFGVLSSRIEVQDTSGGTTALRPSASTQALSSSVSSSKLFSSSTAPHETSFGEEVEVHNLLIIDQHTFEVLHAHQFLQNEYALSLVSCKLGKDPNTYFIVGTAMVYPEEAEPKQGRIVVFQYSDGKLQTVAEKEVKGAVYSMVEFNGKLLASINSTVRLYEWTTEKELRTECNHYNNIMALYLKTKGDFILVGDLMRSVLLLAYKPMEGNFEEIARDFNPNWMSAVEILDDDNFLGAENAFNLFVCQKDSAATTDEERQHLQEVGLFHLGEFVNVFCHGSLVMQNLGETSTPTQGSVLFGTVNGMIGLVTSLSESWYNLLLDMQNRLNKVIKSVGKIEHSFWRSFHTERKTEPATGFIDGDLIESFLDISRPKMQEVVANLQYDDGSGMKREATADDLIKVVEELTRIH

SMILES	CyclinD1 Degradation (200 nM) [1]	inhibition at 0.2 µM ([2]; Calu-1, 16 h)	CyclinD1 Degradation (10 μM) [1]	inhibition at 10 µM ([2]; Calu-1 cells, 16 hours)	inhibition at 0.2 µM ([2]; Calu-1 cells, 200 nM, 16 hours)
CC(=O)c1c(C)c2cnc(Nc3ccc(N4CCN(C(=O)CCNc5ccc(C)c(C(=O)Nc6nc(C)c(C)s6)c5)CC4)cn3)nc2n(C2CCCC2)c1=O [CPD-091, 5-((3-(4-(6-((6-Acetyl-8-cyclopentyl-5-methyl-7-oxo-7,8-dihydropyrido[2,3-d]pyrimidin-2-yl)amino)pyridin-3-yl)piperazin-1-yl)-3-oxopropyl)amino)-N-(4,5-dimethylthiazol-2-yl)-2-methylbenzamide]	D (protein percentage degradation <30%)	< 30%			
Cc1nc(NC(=O)c2ccccc2NC(=O)CCOCCOCCOCCOCCOCCNC(=O)CN2CCN(c3ccc(Nc4ncc5cc6n(c5n4)C4(CCCCC4)CNC6=O)nc3)CC2)sc1C [CPD-326, N-(4,5-Dimethylthiazol-2-yl)-2-(2-oxo-1-(4-(6-((6′-oxo-7′,8′-dihydro-6′H-spiro[cyclohexane-1,9′-pyrazino[1′,2′:1,5]pyrrolo[2,3-d]pyrimidin]-2′-yl)amino)pyridin-3-yl)piperazin-1-yl)-6,9,12,15,18-pentaoxa-3-azahenicosan-21-amido)benzamide]			A (protein percentage degradation >= 80%)	50 to 80%	
CC(=O)c1c(C)c2cnc(Nc3ccc(N4CCN(CC(=O)NCCOCCOCCOCCOCCOCCNC(=O)c5ccc(C(=O)Nc6ncc(C)s6)c(C)c5)CC4)cn3)nc2n(C2CCCC2)c1=O [CPD-008, N^4-(1-(4-(6-((6-Acetyl-8-cyclopentyl-5-methyl-7-oxo-7,8-dihydropyrido[2,3-d]pyrimidin-2-yl)amino)pyridin-3-yl)piperazin-1-yl)-2-oxo-6,9,12,15,18-pentaoxa-3-azaicosan-20-yl)-2-methyl-N^1-(5-methylthiazol-2-yl)terephthalamide]	D (protein percentage degradation <30%)				< 30%
CC(=O)c1c(C)c2cnc(Nc3ccc(N4CCN(CC(=O)NCCOCCOCCC(=O)Nc5ccc(Cl)cc5C(=O)Nc5nc(C)c(C)s5)CC4)cn3)nc2n(C2CCCC2)c1=O [CPD-142, 2-(3-(2-(2-(2-(4-(6-((6-Acetyl-8-cyclopentyl-5-methyl-7-oxo-7,8-dihydropyrido[2,3-d]pyrimidin-2-yl)amino)pyridin-3-yl)piperazin-1-yl)acetamido)ethoxy)ethoxy)propanamido)-5-chloro-N-(4,5-dimethylthiazol-2-yl)benzamide]	D (protein percentage degradation <30%)				< 30%
CC(=O)c1c(C)c2cnc(Nc3ccc(N4CCN(CC(=O)NCCOCCOCCC(=O)Nc5ccc(N(C)C)cc5C(=O)Nc5nc(C)c(C)s5)CC4)cn3)nc2n(C2CCCC2)c1=O [CPD-151, 2-(3-(2-(2-(2-(4-(6-((6-Acetyl-8-cyclopentyl-5-methyl-7-oxo-7,8-dihydropyrido[2,3-d]pyrimidin-2-yl)amino)pyridin-3-yl)piperazin-1-yl)acetamido)ethoxy)ethoxy)propanamido)-5-(dimethylamino)-N-(4,5-dimethylthiazol-2-yl)benzamide]	C (protein percentage degradation <50%, and >=30%)				50 to 80%
CCCCNc1ccc(NC(=O)CCOCCOCCNC(=O)CN2CCN(c3ccc(Nc4ncc5c(C)c(C(C)=O)c(=O)n(C6CCCC6)c5n4)nc3)CC2)c(C(=O)Nc2nc(C)c(C)s2)c1 [CPD-148, 2-(3-(2-(2-(2-(4-(6-((6-Acetyl-8-cyclopentyl-5-methyl-7-oxo-7,8-dihydropyrido[2,3-d]pyrimidin-2-yl)amino)pyridin-3-yl)piperazin-1-yl)acetamido)ethoxy)ethoxy)propanamido)-5-(butylamino)-N-(4,5-dimethylthiazol-2-yl)benzamide]	D (protein percentage degradation <30%)				< 30%
Cc1nc(NC(=O)c2ccccc2NC(=O)CCCCCCCCNC(=O)CN2CCN(c3ccc(Nc4ncc5cc(C(=O)N(C)C)n(C6CCCC6)c5n4)nc3)CC2)sc1C [CPD-293, 7-Cyclopentyl-2-((5-(4-(2-((9-((2-((4,5-dimethylthiazol-2-yl)carbamoyl)phenyl)amino)-9-oxononyl)amino)-2-oxoethyl)piperazin-1-yl)pyridin-2-yl)amino)-N,N-dimethyl-7H-pyrrolo[2,3-d]pyrimidine-6-carboxamide]			A (protein percentage degradation >= 80%)	50 to 80%	
CC(=O)c1c(C)c2cnc(Nc3ccc(N4CCN(CC(=O)NCCOCCOCCC(=O)Nc5cc(Cl)ccc5C(=O)Nc5nc(C)c(C)s5)CC4)cn3)nc2n(C2CCCC2)c1=O [CPD-140, 2-(3-(2-(2-(2-(4-(6-((6-Acetyl-8-cyclopentyl-5-methyl-7-oxo-7,8-dihydropyrido[2,3-d]pyrimidin-2-yl)amino)pyridin-3-yl)piperazin-1-yl)acetamido)ethoxy)ethoxy)propanamido)-4-chloro-N-(4,5-dimethylthiazol-2-yl)benzamide]	A (protein percentage degradation >=80%)				50 to 80%
CC(=O)c1c(C)c2cnc(Nc3ccc(N4CCN(C(=O)CCNc5cccc(C(=O)Nc6nc(C)c(C)s6)c5C)CC4)cn3)nc2n(C2CCCC2)c1=O [CPD-112, 3-((3-(4-(6-((6-Acetyl-8-cyclopentyl-5-methyl-7-oxo-7,8-dihydropyrido[2,3-d]pyrimidin-2-yl)amino)pyridin-3-yl)piperazin-1-yl)-3-oxopropyl)amino)-N-(4,5-dimethylthiazol-2-yl)-2-methylbenzamide]	D (protein percentage degradation <30%)	< 30%			
Cc1nc(NC(=O)c2ccccc2NC(=O)CCCNC(=O)CN2CCN(c3ccc(Nc4ncc(F)c(-c5cc(F)c6nc(C)n(C(C)C)c6c5)n4)nc3)CC2)sc1C [CPD-302, N-(4,5-Dimethylthiazol-2-yl)-2-(4-(2-(4-(6-((5-fluoro-4-(4-fluoro-1-isopropyl-2-methyl-1H-benzo[d]imidazol-6-yl)pyrimidin-2-yl)amino)pyridin-3-yl)piperazin-1-yl)acetamido)butanamido)benzamide]			D (protein percentage degradation < 30%)	< 30%	
CC(=O)c1c(C)c2cnc(Nc3ccc(N4CCN(CC(=O)NCCCCCCCNC(=O)CNc5ccc(C(=O)Nc6ncc(C)s6)c(C)c5)CC4)cn3)nc2n(C2CCCC2)c1=O [CPD-016, 4-((2-((7-(2-(4-(6-((6-Acetyl-8-cyclopentyl-5-methyl-7-oxo-7,8-dihydropyrido[2,3-d]pyrimidin-2-yl)amino)pyridin-3-yl)piperazin-1-yl)acetamido)heptyl)amino)-2-oxoethyl)amino)-2-methyl-N-(5-methylthiazol-2-yl)benzamide]	D (protein percentage degradation <30%)				< 30%
CC(=O)c1c(C)c2cnc(Nc3ccc(N4CCN(CC(=O)NCCCCCCCNc5ccc(C)c(C(=O)Nc6nc(C)c(C)s6)c5)CC4)cn3)nc2n(C2CCCC2)c1=O [CPD-117, 5-((7-(2-(4-(6-((6-Acetyl-8-cyclopentyl-5-methyl-7-oxo-7,8-dihydropyrido[2,3-d]pyrimidin-2-yl)amino)pyridin-3-yl)piperazin-1-yl)acetamido)heptyl)amino)-N-(4,5-dimethylthiazol-2-yl)-2-methylbenzamide]	C (protein percentage degradation <50%, and >=30%)				30 to 50%
CC(=O)c1c(C)c2cnc(Nc3ccc(N4CCN(C(=O)CNc5ccc(C)c(C(=O)Nc6nc(C)c(C)s6)c5)CC4)cn3)nc2n(C2CCCC2)c1=O [CPD-135, 5-((2-(4-(6-((6-Acetyl-8-cyclopentyl-5-methyl-7-oxo-7,8-dihydropyrido[2,3-d]pyrimidin-2-yl)amino)pyridin-3-yl)piperazin-1-yl)-2-oxoethyl)amino)-N-(4,5-dimethylthiazol-2-yl)-2-methylbenzamide]	D (protein percentage degradation <30%)	< 30%			
Cc1nc(NC(=O)c2ccccc2NC(=O)CNC(=O)CN2CCN(c3ccc(Nc4ncc5cc6n(c5n4)C4(CCCCC4)CNC6=O)nc3)CC2)sc1C [CPD-314, N-(4,5-Dimethylthiazol-2-yl)-2-(2-(2-(4-(6-((6′-oxo-7′,8′-dihydro-6′H-spiro[cyclohexane-1,9′-pyrazino[1′,2′:1,5]pyrrolo[2,3-d]pyrimidin]-2′-yl)amino)pyridin-3-yl)piperazin-1-yl)acetamido)acetamido)benzamide]			D (protein percentage degradation < 30%)	< 30%	
Cc1nc(NC(=O)c2ccccc2NC(=O)CCCCCCCNC(=O)CN2CCN(c3ccc(Nc4ncc5cc6n(c5n4)C4(CCCCC4)CNC6=O)nc3)CC2)sc1C [CPD-320, N-(4,5-Dimethylthiazol-2-yl)-2-(8-(2-(4-(6-((6′-oxo-7′,8′-dihydro-6′H-spiro[cyclohexane-1,9′-pyrazino[1′,2′:1,5]pyrrolo[2,3-d]pyrimidin]-2′-yl)amino)pyridin-3-yl)piperazin-1-yl)acetamido)octanamido)benzamide]			A (protein percentage degradation >= 80%)	50 to 80%	
Cc1nc(NC(=O)c2ccccc2NC(=O)CCOCCNC(=O)CN2CCN(c3ccc(Nc4ncc5cc6n(c5n4)C4(CCCCC4)CNC6=O)nc3)CC2)sc1C [CPD-322, N-(4,5-Dimethylthiazol-2-yl)-2-(3-(2-(2-(4-(6-((6′-oxo-7′,8′-dihydro-6′H-spiro[cyclohexane-1,9′-pyrazino[1′,2′:1,5]pyrrolo[2,3-d]pyrimidin]-2′-yl)amino)pyridin-3-yl)piperazin-1-yl)acetamido)ethoxy)propanamido)benzamide]			A (protein percentage degradation >= 80%)	50 to 80%	
